Assay [1] concerns LOS purified from N. gonorrhoeae strain 15253. It counts as in vivo.
In a further assay the test system is mAb 2C7. The experiment in a line: Inhibition ELISA: inhibition of mAb 2C7 binding to immobilized gonococcal LOS. Particulars: for comparative ability to inhibit mAb 2C7 binding to LOS (antigenicity): ranking within the set of peptides tested. The source says:
FIGS. 1A-1B show the structure and characterization of one of the peptide mimics described herein (also referred to as TMCP2). […] The 2C7 mimitope is indicated in shown as the sequence “H2C-CO-GPIPVLDENGLFAPGPC” (SEQ ID NO: 1) Cyclization is maintained through a thioether bond. The reverse peptide mimic core is represented the schematic of the peptide mimic as “Ac-β-Ala-Glu[Glu-OH]2.” The reverse peptide mimic core links to each cyclic peptide through a lysine (K) residue.
In order to compare antigenicity of peptide mimic Core Peptide 2 (monomeric cyclic CP2) and composite TMCP2 compounds with LOS that expresses the 2C7 epitope, inhibition ELISA was performed using mAb 2C7 reacted with the individual compounds to assess inhibition of binding (residual binding) of mAb to LOS by each compound. Microtiter wells were coated with LOS (80 μg/ml in PBS) purified from strain FA1090. Wells were washed and blocked with PBS-0.05% Tween 20. mAb 2C7 (0.04 μg/ml) either alone or containing monomeric cyclic peptide CP2 (1.07 to 1070 μM) or composite TMCP2 (concentrations ranging from […]) was dispended into LOS coated wells. Residual binding of 2C7 mAb was measured with anti-mouse IgG conjugated to alkaline phosphatase. Bound IgG was quantitated using a mouse IgG standard curve and percent inhibition determined compared to reaction mixtures that […].
Attempts to measure mAb 2C7 (7) binding directly to immobilized peptide mimic Core Peptide 2 (abbreviated CP2 in FIG. 1A) and composite TMCP2 by ELISA were not successful. The possibility of poor capture of the peptides by the microtiter wells was considered and therefore used an ELISA to measure inhibition of binding (residual binding) of mAb 2C7 to immobilized gonococcal LOS that had been reacted with increasing concentrations of the peptides (FIG. 1B).

Setting [2] is: earlier peptide constructs, FIG. 18 and FIG. 19.

“Also recorded” adds a separate entry of the source. Where two headings read alike, the source gives them in different places. Bridges are numbered along the chain shown (N, C = ends). Primed or numbered codes have the meaning given here. Where no end group is shown, it is not given here. [ ]: non-standard residue; d: D form. PEG2′ = two-unit polyethylene glycol spacer; PEG2″ = not defined here

This is an account of results in patent US12629410B2, “Multi-antigenic peptide mimics of gonococcal lipo-oligosaccharide (LOS) epitopes” (priority 2019, dated 2026).

For “(KIPVLDENGLFAP-PEG2-KK)4-MAP4 [Tetra MAP 3.1]”, the “immunogenicity in BALB/c mice (IgG against 2C7+ LOS by ELISA)” value (from here on “immunogenicity in BALB/c mice”) in assay [1] (in vivo) is listed as “poorly immunogenic”. Take “[Ac-(CGPIPVLDENGLFAPGPC)-K-OH]4 (Ac-CGPIPVLDENGLFAPGPCK-OH; disulfide 1-18; also: tetrameric reverse MAP core) [TMCP3, disulfide-cyclized peptides on reverse MAP core]”: in assay [1] (tetrapeptides 50 μg/dose plus Sigma MPL adjuvant, BALB/c, FIG. 10), the “anti-LOS titers in immunization experiments” value is reported as “higher anti-LOS titers than TMCP4”. For the same substance, in the assay on mAb 2C7, the “comparative ability to inhibit mAb 2C7 binding to LOS (antigenicity)” value is “bound best”. “KIPVLDENGLFAPAAAGGKIPVLDENGLFAP [Mod3 linear dimer #2]”: the “immunogenicity in BALB/c mice” value in assay [1] (earlier peptide constructs, FIG. 18 and FIG. 19, listed as 16) is “non-immunogenic”; in assay [1] (earlier peptide constructs, FIG. 18 and FIG. 19, listed as Mod3 linear dimer with AAAGG (SEQ ID NO: 5) linker), “neither were immunogenic”. Further, the “comparative ability to inhibit mAb 2C7 binding to LOS (antigenicity)” value in the assay on mAb 2C7 (listed as Mod3 linear dimer with AAAGG (SEQ ID NO: 5) linker) is given as “better than the molecule with the AG linker”. With “KIPVLDENGLFAP-D Lys-D Lys4-K2-K-MAP4 (not fully specified (C-terminus); also: four copies on a branched Lys (K2-K) MAP4 core) [TetraMAP 3.3]”, the “immunogenicity in BALB/c mice” value in assay [1] (setting [2]) was “poorly immunogenic”. In the case of “KIPVLDENGLFAP (SEQ ID NO: 3)-PEG2-KK (KIPVLDENGLFAP[PEG2′]KK) [Mod3]”, in the assay on mAb 2C7 (listed as Mod 3), the “comparative ability to inhibit mAb 2C7 binding to LOS (antigenicity)” value is on record as “most antigenic”. Consider “(CH2-CO-GPIPVLDENGLFAPGPC)-K-OH ({CH2CO}-GPIPVLDENGLFAPGPCK-OH; thioether N-17; SMILES CC[C@H](C)[C@@H]1NC(=O)[C@@H]2CCCN2C(=O)CNC(=O)CSC[C@@H](C(=O)N[C@@H](CCCCN)C(=O)O)NC(=O)[C@@H]2CCCN2C(=O)CNC(=O)[C@@H]2CCCN2C(=O)[C@H](C)NC(=O)[C@H](Cc2ccccc2)NC(=O)[C@H](CC(C)C)NC(=O)CNC(=O)[C@H](CC(N)=O)NC(=O)[C@H](CCC(=O)O)NC(=O)[C@H](CC(=O)O)NC(=O)[C@H](CC(C)C)NC(=O)[C@H](C(C)C)NC(=O)[C@@H]2CCCN2C1=O) [CP2]”, for which the IC50 at mAb 2C7 (mAb 2C7 0.04 μg/ml, LOS-coated wells, read-out: concentration giving 50% inhibition of mAb 2C7 binding to immobilized 15253 LOS) is 107 µM. “SGPIPVLDENGLFAPGPC)4(Lys)2Lys-β-Ala-COOH [Tetra MAP 1.2]”: the “immunogenicity in BALB/c mice” value in assay [1] (in vivo) is reported as “Neither compound was superior”. On to “KIPVLDENGLFAPGSKIPVLDENGLFAP [Mod3 linear dimer #1]”, for which the “immunogenicity in BALB/c mice” value in assay [1] (earlier peptide constructs, FIG. 18 and FIG. 19, listed as 15) was “non-immunogenic”; in assay [1] (earlier peptide constructs, FIG. 18 and FIG. 19, listed as Mod3 linear dimer with GS linker), “neither were immunogenic”. Turning to “(CGPIPVLDENGLFAPGPC)4(Lys)2Lys-β-Ala-COOH [Tetra MAP 1.1]”, in assay [1] (in vivo), the “immunogenicity in BALB/c mice” value is “Neither compound was superior; also recorded: elicited similar anti-LOS Ab levels as Tetra”.

In the case of “(KIPVLDENGLFAP-PEG2-KKC)4-Maleimide4-MAP4 (KIPVLDENGLFAP[PEG2″]KKC; also: four copies on a maleimide MAP4 core) [TetraMAP 3.2]”, the “immunogenicity in BALB/c mice” value in assay [1] (setting [2]) is recorded as “poorly immunogenic”. Still for that read-out and setting: in the case of “KIPVLDENGLFAPGPC-D Lys-D Lys4-K2-K-MAP4 (not fully specified (C-terminus); also: four copies on a branched Lys (K2-K) MAP4 core) [TetraMAP 3.4]” it was “poorly immunogenic”.
